Paper PMC12055656, “Screening the Pandemic Response Box identifies novel ligands of the Staphylococcus aureus protein arginine kinase, McsB” (Molecular Biology Reports, 2025)

What was measured:
[1] = molecular target: T1, Staphylococcus aureus McsB (Staphylococcus aureus, UniProt Q2G0P6); assay: biochemical; parameters: Thermal shift assay (SYPRO Orange) of purified His-tagged McsB, melting temperature shift versus DMSO; settings: TSA, purified McsB
T1 construct: full length, His-tagged, pET-28a(+), expressed in E. coli BL21(DE3), Ni-NTA purified, ~42 kDa; tag kept (anti-His blot); E. coli lysate containing it used for CETSA
Method: The thermal shift assay (TSA) was performed by incubating 0.1 µg/µl of purified McsB in assay buffer (50 mM sodium phosphate, 300 mM NaCl, pH 7.4) with 10X SYPRO Orange fluorescent dye (ThermoFisher Scientific, USA) in a final reaction volume of 20 µl. For primary screening, compounds from the Pandemic Response Box were tested in a pooled format (10 compounds per pool at 10 µM each, 40 pools total). Each pool was incubated with the protein-dye mixture for 1 h at 4 °C, followed by thermal denaturation (25–99 °C, at a ramp rate of 0.5 °C/s). Fluorescence was monitored at 470/586 nm (excitation/emission) using a QuantStudio 5 Real-Time PCR System (Applied Biosystems, ThermoFisher Scientific, USA). Compounds from pools that induced a significant increase in McsB melting temperature (Tm) relative to a DMSO control– indicating engagement with the target protein– were further evaluated individually at 10 µM. All Tm values were determined from derivative curves (dF/dT) using Protein Thermal Shift Software v1.4 (ThermoFisher Scientific, USA) and represent the average of at least three independent replicates (n ≥ 3). Recombinant McsB was expressed in E. coli BL21(DE3) cells and purified using Ni-NTA resin. SDS-PAGE and western blot analysis confirmed the isolation of a ~ 42 kDa His-tagged protein (Fig. 1), consistent with previous reports. The Pandemic Response Box was divided into 40 pools containing 10 compounds each and screened for stabilizing ligands of the purified McsB using TSA. Three groups- B4, C3 and E3- produced the most pronounced increases in McsB melting temperature, elevating it from 54.5 °C to 63.1, 64.0 and 62.8 °C, respectively (Fig. 2A). To identify the active compounds, we screened the 30 individual compounds from these pools, and found nine compounds that increased McsB melting temperature by 0.5–1.2 °C (Fig. 2B and C). Of these, seven induced statistically significant shifts, with MMV1593539 yielding the greatest stabilization (ΔTm = 1.2 ± 0.1 °C, p < 0.0001).

[2] = molecular target: T1, Staphylococcus aureus McsB; parameters: CETSA, anti-His western blot, shift of McsB aggregation temperature; settings: CETSA, aggregation temperature shift; binder

T1 sequence (Q2G0P6 whole entry): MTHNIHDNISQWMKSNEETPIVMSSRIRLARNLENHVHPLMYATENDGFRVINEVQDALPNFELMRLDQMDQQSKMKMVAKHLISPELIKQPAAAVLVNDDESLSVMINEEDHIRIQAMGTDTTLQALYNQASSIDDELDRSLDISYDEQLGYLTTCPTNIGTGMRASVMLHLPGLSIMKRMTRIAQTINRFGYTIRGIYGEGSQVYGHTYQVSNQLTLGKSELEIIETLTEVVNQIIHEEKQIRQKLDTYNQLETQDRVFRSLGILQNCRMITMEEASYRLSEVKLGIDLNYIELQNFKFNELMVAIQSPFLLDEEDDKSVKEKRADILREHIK

Row | Structure (SMILES) | ΔTm at 10 µM [1] [°C] | ΔTagg [2] [°C]
1 | Nc1nc(-c2ccccc2)nc2[nH]nc(Nc3ccc(C(F)(F)F)cc3)c12 [MMV1633968, 6-phenyl-3-N-[4-(trifluoromethyl)phenyl]-1H-pyrazolo[3,4-d]pyrimidine-3,4-diamine] | 0.78 ± 0.081 | –
2 | CCCC(=O)OCCc1ccccc1 [MMV1578899, 2-phenylethyl butanoate 2-phenylethyl butanoate] | 0.9 ± 0.412 | 0.78 ± 0.339
3 | Cn1cc(NC(=O)c2cc(NC(=O)c3ccc(/C=C/c4cnc5ccccc5c4)cc3)cn2C)cc1C(=O)NCCN1CCOCC1 [MMV1634391] | 0.473 ± 0.374 | –
4 | Nc1nc2c(Cc3cccnc3)c[nH]c2c(=O)[nH]1 [MMV1782355] | 0.677 ± 0.098 | 0.63 ± 0.54
